Measurements taken from patent publication US20120283296A1, “PYRROLOPYRAZOLES FOR TREATING CNS DISORDERS” (aFRAXis, Inc., priority 2009, published 2012).
Read-outs that look alike come from different tables or passages of the source.

What was measured:
Assay in all cases: Competitive binding (test PAK inhibitor affinity) assay, phage-displayed kinase vs immobilized staurosporine
[1] = target: PAK4 (Homo sapiens, UniProt O96013)
[2] = target: PAK2 (Homo sapiens, UniProt Q13177)
[3] = target: PAK7 (Homo sapiens, UniProt Q9P286)
Chain of PAK7 (Q9P286 whole entry): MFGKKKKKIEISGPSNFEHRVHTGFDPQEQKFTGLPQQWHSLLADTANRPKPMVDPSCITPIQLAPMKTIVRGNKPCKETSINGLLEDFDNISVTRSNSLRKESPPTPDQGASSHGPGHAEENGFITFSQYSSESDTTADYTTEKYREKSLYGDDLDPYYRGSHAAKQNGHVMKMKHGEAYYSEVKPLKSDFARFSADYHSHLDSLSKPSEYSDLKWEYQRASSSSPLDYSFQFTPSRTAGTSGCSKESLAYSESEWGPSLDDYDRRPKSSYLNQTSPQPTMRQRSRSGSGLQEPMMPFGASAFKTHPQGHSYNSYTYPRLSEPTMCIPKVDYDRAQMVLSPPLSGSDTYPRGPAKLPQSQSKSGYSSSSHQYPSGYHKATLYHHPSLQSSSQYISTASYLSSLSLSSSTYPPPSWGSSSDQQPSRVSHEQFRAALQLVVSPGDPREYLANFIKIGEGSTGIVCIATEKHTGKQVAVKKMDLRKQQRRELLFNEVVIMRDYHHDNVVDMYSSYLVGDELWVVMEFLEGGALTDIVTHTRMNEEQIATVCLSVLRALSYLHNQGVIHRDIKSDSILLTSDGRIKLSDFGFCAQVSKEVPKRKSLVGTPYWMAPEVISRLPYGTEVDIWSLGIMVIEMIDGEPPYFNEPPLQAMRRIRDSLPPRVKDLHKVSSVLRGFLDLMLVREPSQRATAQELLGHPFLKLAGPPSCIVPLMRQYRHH

[4] = target: PAK6 (Homo sapiens, UniProt Q9NQU5)
Chain of PAK6 (Q9NQU5 whole entry): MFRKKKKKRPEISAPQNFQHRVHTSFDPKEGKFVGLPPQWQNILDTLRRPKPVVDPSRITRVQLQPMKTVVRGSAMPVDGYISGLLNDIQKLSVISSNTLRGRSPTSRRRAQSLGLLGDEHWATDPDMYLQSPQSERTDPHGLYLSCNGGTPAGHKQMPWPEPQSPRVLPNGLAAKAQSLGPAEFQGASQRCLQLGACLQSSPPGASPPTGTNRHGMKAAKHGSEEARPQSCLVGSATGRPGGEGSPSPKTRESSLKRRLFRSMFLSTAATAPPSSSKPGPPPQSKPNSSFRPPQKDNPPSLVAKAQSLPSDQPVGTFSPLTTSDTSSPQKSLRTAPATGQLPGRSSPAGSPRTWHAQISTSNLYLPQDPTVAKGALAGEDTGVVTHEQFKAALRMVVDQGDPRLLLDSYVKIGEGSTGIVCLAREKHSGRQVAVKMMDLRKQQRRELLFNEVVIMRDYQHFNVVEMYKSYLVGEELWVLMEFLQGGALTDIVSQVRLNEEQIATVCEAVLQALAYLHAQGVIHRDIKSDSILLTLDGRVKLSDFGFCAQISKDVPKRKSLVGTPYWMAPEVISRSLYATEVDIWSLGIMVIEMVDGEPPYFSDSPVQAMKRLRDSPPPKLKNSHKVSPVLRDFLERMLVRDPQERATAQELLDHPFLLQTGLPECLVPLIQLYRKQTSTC

[5] = target: PAK1 (Homo sapiens, UniProt Q13153)
Chain of PAK1 (Q13153 whole entry): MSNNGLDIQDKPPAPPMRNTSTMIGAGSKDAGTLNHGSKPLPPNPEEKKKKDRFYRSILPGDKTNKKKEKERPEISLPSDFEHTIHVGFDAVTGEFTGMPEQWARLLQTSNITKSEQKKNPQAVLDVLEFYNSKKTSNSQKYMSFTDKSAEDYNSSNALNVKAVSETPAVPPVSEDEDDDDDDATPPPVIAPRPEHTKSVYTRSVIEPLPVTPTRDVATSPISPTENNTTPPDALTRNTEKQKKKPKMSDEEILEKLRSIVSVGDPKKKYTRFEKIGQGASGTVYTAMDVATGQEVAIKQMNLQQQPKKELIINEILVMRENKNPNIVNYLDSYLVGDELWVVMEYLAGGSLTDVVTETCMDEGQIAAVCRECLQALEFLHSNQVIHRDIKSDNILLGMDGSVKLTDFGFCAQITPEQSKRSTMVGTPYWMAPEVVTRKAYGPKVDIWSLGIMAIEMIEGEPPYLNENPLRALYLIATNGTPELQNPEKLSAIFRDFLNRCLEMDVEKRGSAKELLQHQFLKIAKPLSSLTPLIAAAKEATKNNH

Chain of PAK2 (Q13177 whole entry): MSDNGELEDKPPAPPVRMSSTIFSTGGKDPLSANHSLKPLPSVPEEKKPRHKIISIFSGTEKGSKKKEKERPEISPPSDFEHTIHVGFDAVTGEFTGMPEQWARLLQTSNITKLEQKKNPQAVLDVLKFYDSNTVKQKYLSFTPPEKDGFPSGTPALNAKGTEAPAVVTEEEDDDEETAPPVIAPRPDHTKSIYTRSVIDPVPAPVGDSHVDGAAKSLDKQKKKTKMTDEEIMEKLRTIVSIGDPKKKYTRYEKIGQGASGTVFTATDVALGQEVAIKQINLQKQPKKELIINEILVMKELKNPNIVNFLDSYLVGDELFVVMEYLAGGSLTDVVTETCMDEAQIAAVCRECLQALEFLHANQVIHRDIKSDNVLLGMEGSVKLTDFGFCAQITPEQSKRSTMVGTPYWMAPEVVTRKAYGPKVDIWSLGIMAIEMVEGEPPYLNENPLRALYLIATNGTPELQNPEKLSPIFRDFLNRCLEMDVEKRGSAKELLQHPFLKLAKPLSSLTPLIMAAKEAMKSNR
Chain of PAK4 (O96013 whole entry): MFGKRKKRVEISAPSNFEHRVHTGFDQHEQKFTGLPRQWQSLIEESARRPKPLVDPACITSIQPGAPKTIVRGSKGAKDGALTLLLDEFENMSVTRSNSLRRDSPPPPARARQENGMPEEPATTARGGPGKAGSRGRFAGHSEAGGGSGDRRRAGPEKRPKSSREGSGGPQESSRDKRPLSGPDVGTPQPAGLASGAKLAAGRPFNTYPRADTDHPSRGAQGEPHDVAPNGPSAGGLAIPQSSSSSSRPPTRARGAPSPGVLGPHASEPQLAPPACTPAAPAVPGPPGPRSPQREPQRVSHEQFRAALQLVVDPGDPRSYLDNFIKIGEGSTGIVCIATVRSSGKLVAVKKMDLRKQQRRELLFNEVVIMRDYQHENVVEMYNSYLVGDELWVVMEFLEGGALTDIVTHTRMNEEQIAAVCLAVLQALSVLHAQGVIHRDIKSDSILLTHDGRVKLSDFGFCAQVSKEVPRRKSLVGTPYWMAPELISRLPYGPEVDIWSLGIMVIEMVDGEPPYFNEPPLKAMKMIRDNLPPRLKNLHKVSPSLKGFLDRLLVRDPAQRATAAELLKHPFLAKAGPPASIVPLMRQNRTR

SMILES	Kd [1] [µM]	Kd ([2]; read-out: Kd) [µM]	Kd [3] [µM]	Kd [4] [µM]	Kd ([5]; read-out: Kd) [µM]	Kd [2] [µM]	Kd [5] [µM]
CCOc1cc2ncc(C#N)c(Nc3ccc(F)c(Cl)c3)c2cc1NC(=O)/C=C/CN(C)C [EKB-569]	≥ 10	≥ 10	≥ 10	≥ 10	< 5	–	–
Nc1nc(Nc2ccc(S(N)(=O)=O)cc2)nn1C(=O)c1c(F)cccc1F [JNJ-7706621]	–	–	–	< 5	–	≥ 10	≥ 10
